ChEMBL document CHEMBL3137356, “MMV Box Cryptosporidium parvum screening set”

Tested on: Cryptosporidium parvum
Experiment: MMV: Cryptosporidium parvum oocysts (Iowa Strain) were prepared for use by treatment with 10 mM HCl (37 degrees C, 10 min) followed by 2 mM sodium taurocholate in phosphate-buffered saline (PBS) with Ca2+ and Mg2+ (16 degrees C, 10 min) in order to stimulate excystation. The high-throughput screen was carried out by inoculating >90% confluent human ileocecal adenocarcinoma (HCT-8) cells (ATCC) with ~5.5 x 10^3 primed oocysts per well. Experimental compounds or DMSO (vehicle) were added three hours after infection, and cells were incubated for 48 hours.
Format: functional

CN1CCN(c2ccc(Nc3c4ccccc4nc4ccccc34)cc2)CC1
Inhibition: 7.066%

CCOC(=O)C1=C(C)N=c2sc(=Cc3cc(Cl)ccc3O)c(=O)n2C1c1ccc(OC)cc1 (stereo unspecified)
Inhibition: -31.98%

COc1cccc(-c2nn(C)c3sc(C(=O)NCCN4CCN(c5ccccc5F)CC4)cc23)c1
Inhibition: 60.49%

Cc1ccc(F)cc1NC(=O)c1cc(Cl)ccc1Nc1ccccc1
Inhibition: -36.44%

OC1=C2C(=Nc3ccccc3SC2c2ccc(Br)cc2)c2ccccc21 (stereo unspecified)
Inhibition: 2.929%

OCCNc1nc(Nc2ccc(Cl)c(Cl)c2)nc2ccccc12
Inhibition: 12.96%

O=C(NCc1ccco1)C1CCN(S(=O)(=O)c2ccc(Br)cc2)CC1
Inhibition: 29.65%

O=C(Nc1ccc(N2CCCCC2)c(Cl)c1)c1ccc(Br)o1
Inhibition: -27.15%

Oc1ccc(C(=C(Cl)Cl)c2ccc(O)cc2)cc1
Inhibition: -24.26%

CN1CCN(c2nc(Nc3ccc(O)cc3)nc3ccccc23)CC1.Cl
Inhibition: -22.12%

CC(C)(C)c1ccc(C(=O)Nc2nc3ccccc3s2)cc1
Inhibition: 63.38%

CCCCCCc1cc2cc(-c3csc(C=Cc4ccccc4)n3)c(=O)oc2cc1O
Inhibition: 10.86%

CC(C)CCNCC(O)Cn1c2ccccc2c2ccccc21.Cl (stereo unspecified)
Inhibition: 46.75%

Cc1cc(Nc2ccc(C)c(Cl)c2)n2nc(C(F)(F)F)nc2n1
Inhibition: 4.308%

CC(=O)Nc1nnc(SCc2c(C)cc(C(C)(C)C)cc2C)s1
Inhibition: -2.709%

CCOC(=O)C1=C(C)N=c2sc(=Cc3ccccc3O)c(=O)n2C1c1ccc(OC)c2ccccc12 (stereo unspecified)
Inhibition: -32.82%

Fc1ccc2[nH]c3c(NCCCN4CCOCC4)ncnc3c2c1
Inhibition: -0.2614%

O=C(NCC1Cc2cccc(-c3ccncc3)c2O1)c1csc2c1CCCC2 (stereo unspecified)
Inhibition: 13.55%

Cc1ccc2nc(C)cc(Nc3cccc(C(F)(F)F)c3)c2c1.Cl
Inhibition: 53.25%

CCN(CC)CCNc1ncnc2c1[nH]c1ccc(Br)cc12
Inhibition: -47.02%

CCC(C)NCC(O)(c1ccc(Cl)cc1)c1ccc(Cl)cc1 (stereo unspecified)
Inhibition: -5.937%

O=C(Nc1cccc(-c2nc3ccccc3[nH]2)c1)c1cccc(NC(=O)c2ccco2)c1
Inhibition: 23.53%

CC1CC(C)CN(C(=O)c2ccc(Cl)cc2Cl)C1 (stereo unspecified)
Inhibition: -45.44%

CC(C)(C)C(=O)Nc1ccc(C(=O)Nc2cccc(-c3nc4ccccc4[nH]3)c2)cc1
Inhibition: 18.85%

Cc1ccccc1OCCSc1nc2ccc(NC(=O)c3cccs3)cc2s1
Inhibition: -27.25%

Cn1c(=O)c2cc(C(=O)NCCCN3CCCCCC3)sc2c2ccccc21
Inhibition: -13.68%

Cc1ccnc(NC(c2cccc(OCc3ccccc3)c2)c2ccc3cccnc3c2O)c1 (stereo unspecified)
Inhibition: 80.24%

O=C(Nc1ccc(-c2nc3ccccc3[nH]2)cc1)c1ccc(Cl)c(Cl)c1
Inhibition: 10.57%

Cc1cc(N2CCCC2)nc(Nc2ccc(NC(=O)CCc3ccccc3)cc2)n1
Inhibition: 13.46%

OC1CCCCC1C1(NC(=S)Nc2ccccc2)CCCCC1 (stereo unspecified)
Inhibition: 3.232%

CN(C)c1ccc(N=Cc2ccc(N3CCOCC3)cc2)cc1
Inhibition: -8.003%

CCOc1ccc(/C=C/c2nc(=O)c3ccccc3o2)cc1
Inhibition: -0.2946%

Cl.Clc1cc(Br)ccc1-c1ccc(CNCC2CCNCC2)o1
Inhibition: 26.78%

COc1ccc(N2CCN(C(CNC(=O)CC(C)(C)C)c3ccc4c(c3)OCO4)CC2)cc1 (stereo unspecified)
Inhibition: -20.28%

COc1ccc2nc(C)cc(Nc3ccc(Cl)cc3)c2c1
Inhibition: -41.72%

CCCc1c(C)nc2ccccc2c1O
Inhibition: -14.82%

COc1ccc(-c2nc(NC(=O)CS(=O)(=O)c3ccc(F)cc3)sc2C)cc1
Inhibition: -22.95%

COc1ccc(CN2CCN(Cc3ccccc3)CC2)c(O)c1
Inhibition: -9.592%

N#Cc1nc(Cc2cccc3ccccc23)oc1N1CCN(C(c2ccccc2)c2ccccc2)CC1
Inhibition: -4.219%

O=C(CCl)NCCOc1ccc(Cl)cc1Cl
Inhibition: 7.535%

COc1ccc2c(=O)cc(C(Cl)(Cl)Cl)oc2c1
Inhibition: 71.77%

Cc1cc(=O)oc2c1ccc1oc(C(=O)c3ccccc3)c(C)c12
Inhibition: 64.86%

CC(C)c1ccc(CNCC(O)c2ccccc2)cc1.Cl (stereo unspecified)
Inhibition: 13.18%

OC(CNC1CCCCC1)Cn1c2ccccc2c2ccccc21 (stereo unspecified)
Inhibition: -24.91%

c1ccc2cc3c(Nc4ccc(N5CCOCC5)cc4)ccnc3cc2c1
Inhibition: 17%

O=C(NC1CCCC1)c1ccc(N2CCC(NCc3cccc(C(F)(F)F)c3)CC2)cc1
Inhibition: -29.41%

COc1ccc2nc(C)cc(Nc3cccc(O)c3)c2c1.Cl
Inhibition: -14.76%

O=C(Nc1ccc(N2CCN(Cc3ccccc3)CC2)cc1)c1cccs1.O=C(O)C(F)(F)F
Inhibition: -70.26%

CC(C)(C)c1ccc(O)c(CNC2CCCCC2)c1
Inhibition: -70.4%

O=C(CCc1ccccc1)c1ccccc1OCC(O)CN1CCCCC1 (stereo unspecified)
Inhibition: -4.075%

Cn1c(C(=O)c2cccc3ccccc23)nc2ccccc21
Inhibition: -17.7%

Cc1cc(NC(=O)c2ccc(-c3ccccc3)cc2)no1
Inhibition: 13.55%

CCCCCCC(O)(c1ccc(F)cc1)C(CN1CCOCC1)c1ccccc1.Cl (stereo unspecified)
Inhibition: 35.55%

OC(CNCC1CCCO1)Cn1c2ccc(Cl)cc2c2cc(Cl)ccc21 (stereo unspecified)
Inhibition: -33.95%

CCCCCCOC(=O)C1=C(C)NC(=O)NC1c1ccccc1F (stereo unspecified)
Inhibition: -26.01%

CCN(CC)CCCNc1nc(-c2ccc(Cl)cc2)nc2ccccc12
Inhibition: -30.51%

CCCCC(O)(c1ccc(Cl)cc1)C(CN1CCOCC1)c1ccc(Cl)cc1.Cl (stereo unspecified)
Inhibition: 17.88%

Oc1ccc(Br)cc1CN1CCN(Cc2ccc(Cl)cc2)CC1
Inhibition: -16.25%

CCCN(CCC)CC(O)COc1ccccc1C(=O)Nc1ccccc1 (stereo unspecified)
Inhibition: 46.62%

COc1ccc(-c2cc3c(SCC(=O)Nc4cc(C(F)(F)F)ccc4Cl)nccn3n2)cc1
Inhibition: -78.4%

Cc1c(C)n(CC(O)CNC2CCCCC2C)c2ccccc12 (stereo unspecified)
Inhibition: -20.79%

COc1ccc(CNC2CCN(c3ccc(NC(=O)c4cccc(Cl)c4)cc3)CC2)cc1OC
Inhibition: -38.21%

Cl.N=c1n(CCN2CCCCC2)c2ccccc2n1CC(O)c1cccc(Br)c1 (stereo unspecified)
Inhibition: 3.872%

CCN(CC)CCNc1ccnc2cc(Cl)ccc12
Inhibition: -45.62%

COc1ccc(C2c3ccc4ccccc4c3Oc3ncn(CCCn4ccnc4)c(=N)c32)cc1OC (stereo unspecified)
Inhibition: 5.542%

CCCCc1ccc(NS(=O)(=O)c2cc3c4c(c2)CCN4C(=O)CC3)cc1
Inhibition: 4.064%

COc1ccc(N2CCN(C(CNC(=O)C3CCCCC3)c3ccc4c(c3)OCO4)CC2)cc1 (stereo unspecified)
Inhibition: -25.24%

COc1ccccc1C(=O)ON=C(N)Cc1cccc2ccccc12
Inhibition: -19.53%

Cl.Cn1c(=O)n(C)c2cc(CNCCNc3ccnc4cc(Cl)ccc34)ccc21
Inhibition: 20.67%

COc1ccccc1CNC(=O)C1c2ccccc2C(=O)N(CC(C)C)C1c1cccs1 (stereo unspecified)
Inhibition: 58.94%

CCOc1cc2c(cc1OCC)C(c1cc(Cl)c(O)c(OCC)c1)NCC2 (stereo unspecified)
Inhibition: -10.58%

CC(=O)c1sc(NC(=O)Nc2ccc(C)cc2C)nc1C
Inhibition: -18.27%

Brc1ccc(Nc2nc3ccccc3nc2Nc2ccc(Br)cc2)cc1
Inhibition: -31.05%

COc1ccc(C2=C(c3ccc(OC)cc3)C3(c4ccccc4)C(=O)C2(c2ccccc2)C2C(=O)N(c4ccc(C)cc4)C(=O)C23)cc1 (stereo unspecified)
Inhibition: 63.25%

COc1ccc2c(c1)C1(Nc3ccccc3-c3nc4ccccc4n31)C(=O)N2 (stereo unspecified)
Inhibition: -27.19%

Cc1ccccc1OCCSc1nc2ccc(NC(=O)c3ccccc3)cc2s1
Inhibition: 17.58%
